Earlier results, collected in US20060286164A1 (priority 2004, published 2006).
“Also recorded” adds a separate entry of the source. Like-named read-outs stand apart in the source and are kept apart here. One block for each molecule: values may come before it.

Key:
[1] = not given; remark: listed apart in the source
Guinea Pig = details: in vivo, po
mouse = details: in vivo, po
[2] = set by WHO from metabolic and toxicological data

Molecule: CCCCCCCC/C=C\CCCCCCCC(=O)O [Oleic acid, (Z)-9-Octadecenoic acid]
LD50 (rat; IV): 2.4 mg/kg

Molecule: CCOCCOCCO [Transcutol, Diethylene glycol monoethyl ether]
solubility in water: soluble
LD50 (rat; in vivo, po): 7.5 mg/kg
solubility ([1]; ethanol, hexylene glycol and propylene glycol): soluble
solubility ([1]; vegetable oil): partially soluble

Molecule: CC(C)Cc1ccc(C(C)C(=O)O)cc1 (racemic) [Ibuprofen, 2-(4-Isobutylphenyl)Propionic acid]
solubility in water: practically insoluble; also recorded: not soluble

solubility in water: not soluble
Molecule: CC(C)Cc1ccc([C@H](C)C(=O)O)cc1 [(S)-(+)-Ibuprofen]

Molecule: CCO [Ethanol, Ethyl alcohol]
LD50 (Guinea Pig): 5560 mg/kg
LD50 (mouse): 7500 mg/kg
miscibility ([1]; chloroform, ether, glycerin and water): miscible

Molecule: Vitamin E
solubility in water: practically insoluble
solubility ([1]; acetone, ethanol, ether and vegetable oil): freely soluble

Molecule: CC(O)CO (stereo not shown) [propylene glycol, Propylene glycol]
acceptable daily intake [2]: up to 25 mg/kg body weight
